{"source": "patent US4587254A", "about": "“1,3,4-thiadiazole derivatives, process for the production thereof and use thereof as antiulcer agent” (Wakamoto Pharmaceutical Co., Ltd., priority 1983, dated 1986)", "key": {"[1]": {"experiment": "Acute toxicity in mice (LD50)", "conditions": "mouse, in vivo", "text": "(§1) For example, the acute toxicities of a compound of the formula (I) wherein R2 represents --NH2 in mice and rats are as shown in Table 1. The acute toxicities of compounds of the formula (I) wherein R2 represents --NHCH3, --SH or --SCH3 are nearly equal to that shown in Table 1."}, "[2]": {"experiment": "Acute toxicity in rats (LD50)", "conditions": "rat, in vivo", "text": "as §1"}, "[3]": {"test_system": "secretion of acid in the stomach", "experiment": "Inhibition of the secretion of acid in the stomach (pylorus-ligated rats)", "type": "in vivo, rats (Donryu male)", "conditions": "duodenum, 6 h; for Rate of control of the amount of acid discharged / Rate of control of the amount of pepsin discharged / Rate of inhibition of acidity / Rate of inhibition of the secretion of gastric juice: Table 5, ten rats", "protocol": "The pylorus was ligated. Immediately thereafter, a test sample was placed in the duodenum and the abdomen was closed. Six hour after the administration of the test sample, the stomach was taken out under […] anesthesia and the gastric juice was taken out. The gastric juice was centrifuged. The quantity, acidity and pepsin activity of the supernatant liquid were determined. […] The amount of the acid discharged per hour was calculated by multiplying the acidity by the quantity of the juice. Pepsin activity was determined by Anson's method [J. gen. […] The results of the tests of TAS are the averages of the group consisting of ten rats."}, "[4]": {"experiment": "Antiulcer effects (pylorus-ligated rats)", "type": "in vivo, rats (Donryu)", "conditions": "duodenum, 8 h", "protocol": "Donryu rats weighing 200 to 230 g were used. Each group consisted of 6 rats. After fasting for 72 h, the rats were subjected to an abdominal operation under etheral anesthesia. The pylorus was ligated. Immediately thereafter, a given dose of a test sample was placed in the duodenum. Thereafter, neither food nor water was given. After 8 h, the stomach was taken out under etheral anesthesia and immersed in 1% formalin solution for 10 min. The stomach was cut along the greater curvature. The area of ulcer formed in the forestomach was determined by an anatomico-microscopicobservation (magnification: ×10). The rate of control of the ulcer (%) was calculated as compared with a control."}}, "note": "Several values for one entry are separate records, joined by “and”; a condition that tells them apart may be missing. Equal entries are not always repeated.", "data": [{"smiles": "Nc1nnc(NCCCOc2cccc(CN3CCCCC3)c2)s1", "note": "[2-N-{3-[3-(1-piperidinomethyl)phenoxy]propyl}amino-5-amino-1,3,4-thiadiazole]", "values": [{"measurement": "LD50", "setting": "[1]; intravenous injection", "value": 53.2, "unit": "mg/kg"}, {"measurement": "LD50", "setting": "[1]; po, peroral", "value": 1220, "unit": "mg/kg"}, {"measurement": "LD50", "setting": "[2]; intravenous injection", "value": 91.6, "unit": "mg/kg"}, {"measurement": "LD50", "setting": "[2]; po, peroral", "value": 1410, "unit": "mg/kg"}]}, {"smiles": "CNC(=C[N+](=O)[O-])NCCSCc1ccc(CN(C)C)o1", "note": "[ranitidine, reference compound]", "values": [{"measurement": "Rate of control of the amount of acid discharged", "setting": "[3]; 6.7 mg/kg", "value": 19.3, "unit": "%"}, {"measurement": "Rate of control of the amount of pepsin discharged", "setting": "[3]; 6.7 mg/kg", "value": 1.5, "unit": "%"}, {"measurement": "Rate of inhibition of acidity", "setting": "[3]; 6.7 mg/kg", "value": 11.3, "unit": "%"}, {"measurement": "Rate of inhibition of the secretion of gastric juice", "setting": "[3]; 6.7 mg/kg", "value": 7.7, "unit": "%"}, {"measurement": "Rate of control of the amount of acid discharged", "setting": "[3]; 20.0 mg/kg", "value": 54.2, "unit": "%"}, {"measurement": "Rate of control of the amount of pepsin discharged", "setting": "[3]; 20.0 mg/kg", "value": -4.5, "unit": "%"}, {"measurement": "Rate of inhibition of acidity", "setting": "[3]; 20.0 mg/kg", "value": 28.2, "unit": "%"}, {"measurement": "Rate of inhibition of the secretion of gastric juice", "setting": "[3]; 20.0 mg/kg", "value": 23.1, "unit": "%"}, {"measurement": "Rate of control of the amount of acid discharged", "setting": "[3]; 60.0 mg/kg", "value": 67.4, "unit": "%"}, {"measurement": "Rate of control of the amount of pepsin discharged", "setting": "[3]; 60.0 mg/kg", "value": -3.0, "unit": "%"}, {"measurement": "Rate of inhibition of acidity", "setting": "[3]; 60.0 mg/kg", "value": 50.1, "unit": "%"}, {"measurement": "Rate of inhibition of the secretion of gastric juice", "setting": "[3]; 60.0 mg/kg", "value": 34.6, "unit": "%"}, {"measurement": "Inhibition rate (ulcer)", "setting": "[4]; 100 mg/kg", "value": 50, "unit": "%"}, {"measurement": "Inhibition rate (ulcer)", "setting": "[4]; 200 mg/kg", "value": 85, "unit": "%"}]}, {"smiles": "CN/C(=N/CCSCc1nc[nH]c1C)NC#N", "note": "[cimetidine, reference compound]", "values": [{"measurement": "Acidity", "setting": "[3]; 6.7 mg/kg, five rats", "value": "85.0 meq H^+ /l and 76.0 meq H^+ /l"}, {"measurement": "Gastric juice secreted", "setting": "[3]; 6.7 mg/kg, five rats", "value": "5.4 mL and 5.0 mL"}, {"measurement": "Pepsin activity", "setting": "[3]; 6.7 mg/kg, five rats", "value": "7.0 mg/mL and 5.5 mg/mL"}, {"measurement": "Acidity", "setting": "[3]; 20.0 mg/kg, five rats", "value": "77.0 meq H^+ /l and 79.0 meq H^+ /l"}, {"measurement": "Gastric juice secreted", "setting": "[3]; 20.0 mg/kg, five rats", "value": "4.8 mL and 4.5 mL"}, {"measurement": "Inhibition rate (acidity)", "setting": "[3]; 20.0 mg/kg, five rats", "value": "5.4% and 11.0%"}, {"measurement": "Inhibition rate (amount of acid discharged)", "setting": "[3]; 20.0 mg/kg, five rats", "value": "31.0% and 29.0%"}, {"measurement": "Inhibition rate (gastric juice secreted)", "setting": "[3]; 20.0 mg/kg, five rats", "value": "17.0% and 29.0%"}, {"measurement": "Inhibition rate (pepsin activity)", "setting": "[3]; 20.0 mg/kg, five rats", "value": "0% and 7.3%"}, {"measurement": "Pepsin activity", "setting": "[3]; 20.0 mg/kg, five rats", "value": "6.2 mg/mL and 5.1 mg/mL"}, {"measurement": "Acidity", "setting": "[3]; 60.0 mg/kg, five rats", "value": "61.0 meq H^+ /l and 62.0 meq H^+ /l"}, {"measurement": "Gastric juice secreted", "setting": "[3]; 60.0 mg/kg, five rats", "value": "3.7 mL and 4.5 mL"}, {"measurement": "Inhibition rate (acidity)", "setting": "[3]; 60.0 mg/kg, five rats", "value": "25.0% and 31.0%"}, {"measurement": "Inhibition rate (amount of acid discharged)", "setting": "[3]; 60.0 mg/kg, five rats", "value": "55.0% and 45.0%"}, {"measurement": "Inhibition rate (gastric juice secreted)", "setting": "[3]; 60.0 mg/kg, five rats", "value": "36.0% and 29.0%"}, {"measurement": "Pepsin activity", "setting": "[3]; 60.0 mg/kg, five rats", "value": 6.3, "unit": "mg/mL"}, {"measurement": "Amount of acid discharged", "setting": "[3]; Table 3, 6.7 mg/kg, five rats", "value": 79.0, "unit": "μEq/H"}, {"measurement": "Amount of acid discharged", "setting": "[3]; Table 3, 20.0 mg/kg, five rats", "value": 57.0, "unit": "μEq/H"}, {"measurement": "Amount of acid discharged", "setting": "[3]; Table 3, 60.0 mg/kg, five rats", "value": 38.0, "unit": "μEq/H"}, {"measurement": "Amount of acid discharged", "setting": "[3]; Table 4, 6.7 mg/kg, five rats", "value": 67.0, "unit": "μEq/h"}, {"measurement": "Amount of acid discharged", "setting": "[3]; Table 4, 20.0 mg/kg, five rats", "value": 61.0, "unit": "μEq/h"}, {"measurement": "Amount of acid discharged", "setting": "[3]; Table 4, 60.0 mg/kg, five rats", "value": 47.0, "unit": "μEq/h"}, {"measurement": "Rate of control of the amount of acid discharged", "setting": "[3]; 6.7 mg/kg", "value": 2.5, "unit": "%"}, {"measurement": "Rate of control of the amount of pepsin discharged", "setting": "[3]; 6.7 mg/kg", "value": -6.1, "unit": "%"}, {"measurement": "Rate of inhibition of acidity", "setting": "[3]; 6.7 mg/kg", "value": 2.9, "unit": "%"}, {"measurement": "Rate of inhibition of the secretion of gastric juice", "setting": "[3]; 6.7 mg/kg", "value": 3.8, "unit": "%"}, {"measurement": "Rate of control of the amount of acid discharged", "setting": "[3]; 20.0 mg/kg", "value": 25.6, "unit": "%"}, {"measurement": "Rate of control of the amount of pepsin discharged", "setting": "[3]; 20.0 mg/kg", "value": 6.1, "unit": "%"}, {"measurement": "Rate of inhibition of acidity", "setting": "[3]; 20.0 mg/kg", "value": 12.4, "unit": "%"}, {"measurement": "Rate of inhibition of the secretion of gastric juice", "setting": "[3]; 20.0 mg/kg", "value": 7.7, "unit": "%"}, {"measurement": "Rate of control of the amount of acid discharged", "setting": "[3]; 60.0 mg/kg", "value": 51.1, "unit": "%"}, {"measurement": "Rate of control of the amount of pepsin discharged", "setting": "[3]; 60.0 mg/kg", "value": 4.5, "unit": "%"}, {"measurement": "Rate of inhibition of acidity", "setting": "[3]; 60.0 mg/kg", "value": 30.9, "unit": "%"}, {"measurement": "Rate of inhibition of the secretion of gastric juice", "setting": "[3]; 60.0 mg/kg", "value": 28.8, "unit": "%"}, {"measurement": "Inhibition rate (ulcer)", "setting": "[4]; 100 mg/kg", "value": 10, "unit": "%"}, {"measurement": "Inhibition rate (ulcer)", "setting": "[4]; 200 mg/kg", "value": 60, "unit": "%"}]}]}
